Reference: paper PMC7827406, “Structure–Activity Relationship (SAR) Study of Spautin-1 to Entail the Discovery of Novel NEK4 Inhibitors” (International Journal of Molecular Sciences, 2021)
Like-named read-outs stand apart in the source and are kept apart here.

Key:
Test in all cases: biochemical
Set-up in all cases: Eurofins KinaseProfiler full panel at Km ATP, residual kinase activity (%) relative to DMSO
[1] = molecular target: T1, PI3 Kinase (p110a(E542K)/p85a)(m) (Mus musculus, UniProt P42337, E542K)
T1 construct: gene Pik3ca
Method in brief: (§1)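 Radiometric kinase activity assays were run with ATP at Km and compounds at 10 µM, and remaining activity (%) was reported. A separate competitive binding screen measured DNA-tagged kinase displaced from immobilized active-site ligands by qPCR, giving percent kinase still bound at 10 µM compound in DMSO.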

Haspin(h) = molecular target: T2, Haspin(h) (Homo sapiens, UniProt Q8TF76)
T2 sequence (Q8TF76 1-798): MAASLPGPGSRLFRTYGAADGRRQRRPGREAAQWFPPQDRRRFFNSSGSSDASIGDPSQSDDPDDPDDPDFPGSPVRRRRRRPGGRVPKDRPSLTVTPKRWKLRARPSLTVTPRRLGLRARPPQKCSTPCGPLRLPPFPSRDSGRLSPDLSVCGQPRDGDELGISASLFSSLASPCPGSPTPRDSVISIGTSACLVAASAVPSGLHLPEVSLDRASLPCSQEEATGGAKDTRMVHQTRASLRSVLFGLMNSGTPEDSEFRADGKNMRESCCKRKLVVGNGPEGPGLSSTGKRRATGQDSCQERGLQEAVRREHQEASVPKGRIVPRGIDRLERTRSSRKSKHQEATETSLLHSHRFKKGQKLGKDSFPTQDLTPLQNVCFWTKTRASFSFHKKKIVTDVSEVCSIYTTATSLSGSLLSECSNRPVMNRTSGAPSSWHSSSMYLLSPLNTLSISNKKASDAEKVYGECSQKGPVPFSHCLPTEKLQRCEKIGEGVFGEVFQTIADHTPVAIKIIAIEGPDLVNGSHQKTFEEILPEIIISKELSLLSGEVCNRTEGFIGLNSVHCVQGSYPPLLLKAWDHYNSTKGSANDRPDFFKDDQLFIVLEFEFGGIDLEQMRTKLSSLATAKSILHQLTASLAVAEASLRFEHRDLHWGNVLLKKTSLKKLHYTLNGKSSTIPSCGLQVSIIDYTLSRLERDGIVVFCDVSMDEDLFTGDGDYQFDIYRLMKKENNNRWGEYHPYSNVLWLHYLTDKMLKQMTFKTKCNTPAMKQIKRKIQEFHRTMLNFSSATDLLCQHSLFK
Method in brief: as §1

CDKL3(h) = CDKL3(h) (Homo sapiens, UniProt Q8IVW4)
Method in brief: as §1

Rsk4(h) = molecular target: T3, Rsk4(h) (Homo sapiens, UniProt Q9UK32)
T3 construct: gene RPS6KA6
Method in brief: as §1

CDKL1(h) = CDKL1(h) (Homo sapiens, UniProt Q00532)
Method in brief: as §1

PI3KC2a(h) = molecular target: T4, PI3KC2a(h) (Homo sapiens, UniProt O00443)
T4 construct: gene PIK3C2A
Method in brief: as §1

CaMKIß(h) = molecular target: T5, CaMKIß(h) (Homo sapiens, UniProt Q6P2M8)
T5 construct: gene PNCK
Method in brief: as §1

WNK4(h) = WNK4(h) (Homo sapiens, UniProt Q96J92)
Method in brief: as §1

MARK4(h) = molecular target: T6, MARK4(h) (Homo sapiens, UniProt Q96L34)
T6 sequence (Q96L34 1-752): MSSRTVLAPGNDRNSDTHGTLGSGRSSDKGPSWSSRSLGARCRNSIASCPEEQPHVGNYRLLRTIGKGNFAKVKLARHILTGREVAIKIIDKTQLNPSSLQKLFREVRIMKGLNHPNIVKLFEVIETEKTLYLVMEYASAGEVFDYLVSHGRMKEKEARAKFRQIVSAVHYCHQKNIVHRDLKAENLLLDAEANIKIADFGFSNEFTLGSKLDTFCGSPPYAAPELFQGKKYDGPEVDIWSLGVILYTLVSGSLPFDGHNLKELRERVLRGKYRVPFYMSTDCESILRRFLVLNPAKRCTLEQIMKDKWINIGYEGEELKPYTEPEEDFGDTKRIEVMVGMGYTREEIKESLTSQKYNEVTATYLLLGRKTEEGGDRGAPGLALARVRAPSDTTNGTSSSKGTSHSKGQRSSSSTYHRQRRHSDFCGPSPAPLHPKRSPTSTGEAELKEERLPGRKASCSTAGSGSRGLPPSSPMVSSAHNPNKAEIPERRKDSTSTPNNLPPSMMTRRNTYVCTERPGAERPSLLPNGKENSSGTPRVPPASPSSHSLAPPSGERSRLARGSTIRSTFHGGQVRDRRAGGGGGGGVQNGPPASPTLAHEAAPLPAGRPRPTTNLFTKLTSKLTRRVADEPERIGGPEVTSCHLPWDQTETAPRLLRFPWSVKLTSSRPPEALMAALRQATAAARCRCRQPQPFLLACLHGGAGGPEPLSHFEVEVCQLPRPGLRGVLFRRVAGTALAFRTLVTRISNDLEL
Method in brief: as §1

[2] = read-out: Residual activity (%) 5at
[3] = read-out: Residual activity (%) 5as
[4] = read-out: Residual activity (%) 5ay
[5] = read-out: Residual activity (%) Spautin-1 5aa

T1 sequence (P42337 whole entry E542K): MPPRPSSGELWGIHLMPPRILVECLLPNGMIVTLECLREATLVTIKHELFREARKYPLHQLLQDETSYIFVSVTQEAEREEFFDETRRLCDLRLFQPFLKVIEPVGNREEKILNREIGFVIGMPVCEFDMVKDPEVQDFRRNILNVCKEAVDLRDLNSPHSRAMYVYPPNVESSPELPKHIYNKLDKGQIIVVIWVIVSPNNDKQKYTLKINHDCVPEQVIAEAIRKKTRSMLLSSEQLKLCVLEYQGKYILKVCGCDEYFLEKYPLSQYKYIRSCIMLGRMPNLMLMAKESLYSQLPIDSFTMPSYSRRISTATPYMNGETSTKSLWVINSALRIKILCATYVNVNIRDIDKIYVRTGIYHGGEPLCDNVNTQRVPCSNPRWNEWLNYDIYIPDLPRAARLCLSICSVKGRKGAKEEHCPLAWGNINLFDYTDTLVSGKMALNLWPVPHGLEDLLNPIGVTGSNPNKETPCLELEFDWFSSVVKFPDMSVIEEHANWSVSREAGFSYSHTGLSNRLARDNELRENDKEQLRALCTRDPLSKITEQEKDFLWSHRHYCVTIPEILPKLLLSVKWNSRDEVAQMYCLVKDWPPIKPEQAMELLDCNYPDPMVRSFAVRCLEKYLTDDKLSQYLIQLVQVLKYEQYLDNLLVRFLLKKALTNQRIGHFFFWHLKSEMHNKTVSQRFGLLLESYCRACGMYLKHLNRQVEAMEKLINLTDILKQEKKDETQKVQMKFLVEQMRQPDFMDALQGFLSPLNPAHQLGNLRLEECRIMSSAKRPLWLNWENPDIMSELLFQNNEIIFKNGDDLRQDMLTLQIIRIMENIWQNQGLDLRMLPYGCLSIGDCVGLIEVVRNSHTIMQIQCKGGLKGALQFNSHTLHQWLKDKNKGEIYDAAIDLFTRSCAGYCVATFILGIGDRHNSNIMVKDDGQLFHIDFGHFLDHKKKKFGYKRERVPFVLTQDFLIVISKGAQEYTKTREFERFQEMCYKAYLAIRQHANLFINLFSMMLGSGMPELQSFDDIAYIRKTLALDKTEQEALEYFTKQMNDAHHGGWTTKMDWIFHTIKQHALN
T1 sequence (P26450 whole entry partner): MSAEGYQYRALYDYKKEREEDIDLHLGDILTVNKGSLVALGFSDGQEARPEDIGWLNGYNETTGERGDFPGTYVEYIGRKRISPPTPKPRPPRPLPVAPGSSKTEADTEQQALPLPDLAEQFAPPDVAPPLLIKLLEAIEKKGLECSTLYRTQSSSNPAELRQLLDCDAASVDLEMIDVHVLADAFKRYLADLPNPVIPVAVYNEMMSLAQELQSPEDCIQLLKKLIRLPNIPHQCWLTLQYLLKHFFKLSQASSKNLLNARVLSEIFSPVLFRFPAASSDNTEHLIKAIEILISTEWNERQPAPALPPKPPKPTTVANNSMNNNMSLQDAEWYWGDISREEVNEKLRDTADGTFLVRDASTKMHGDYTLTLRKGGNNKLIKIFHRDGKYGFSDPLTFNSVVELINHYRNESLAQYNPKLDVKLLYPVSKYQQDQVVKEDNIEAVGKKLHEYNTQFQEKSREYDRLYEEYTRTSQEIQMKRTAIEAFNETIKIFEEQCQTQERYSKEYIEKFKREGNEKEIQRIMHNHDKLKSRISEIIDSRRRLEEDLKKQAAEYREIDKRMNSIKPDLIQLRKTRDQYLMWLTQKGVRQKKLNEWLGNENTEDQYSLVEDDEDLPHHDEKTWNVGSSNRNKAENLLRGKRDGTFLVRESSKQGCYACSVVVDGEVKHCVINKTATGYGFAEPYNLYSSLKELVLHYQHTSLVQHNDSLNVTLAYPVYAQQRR
Chain of CDKL1(h) (Q00532 whole entry): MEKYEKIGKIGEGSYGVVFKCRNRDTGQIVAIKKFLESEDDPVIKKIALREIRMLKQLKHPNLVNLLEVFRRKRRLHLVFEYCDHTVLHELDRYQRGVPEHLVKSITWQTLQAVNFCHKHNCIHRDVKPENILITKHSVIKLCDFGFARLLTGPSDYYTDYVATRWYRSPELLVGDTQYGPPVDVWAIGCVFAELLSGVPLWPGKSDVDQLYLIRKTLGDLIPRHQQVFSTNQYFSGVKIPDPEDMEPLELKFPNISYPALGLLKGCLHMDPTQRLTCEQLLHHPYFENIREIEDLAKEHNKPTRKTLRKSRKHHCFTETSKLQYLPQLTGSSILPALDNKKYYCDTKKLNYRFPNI
T4 sequence (O00443 whole entry): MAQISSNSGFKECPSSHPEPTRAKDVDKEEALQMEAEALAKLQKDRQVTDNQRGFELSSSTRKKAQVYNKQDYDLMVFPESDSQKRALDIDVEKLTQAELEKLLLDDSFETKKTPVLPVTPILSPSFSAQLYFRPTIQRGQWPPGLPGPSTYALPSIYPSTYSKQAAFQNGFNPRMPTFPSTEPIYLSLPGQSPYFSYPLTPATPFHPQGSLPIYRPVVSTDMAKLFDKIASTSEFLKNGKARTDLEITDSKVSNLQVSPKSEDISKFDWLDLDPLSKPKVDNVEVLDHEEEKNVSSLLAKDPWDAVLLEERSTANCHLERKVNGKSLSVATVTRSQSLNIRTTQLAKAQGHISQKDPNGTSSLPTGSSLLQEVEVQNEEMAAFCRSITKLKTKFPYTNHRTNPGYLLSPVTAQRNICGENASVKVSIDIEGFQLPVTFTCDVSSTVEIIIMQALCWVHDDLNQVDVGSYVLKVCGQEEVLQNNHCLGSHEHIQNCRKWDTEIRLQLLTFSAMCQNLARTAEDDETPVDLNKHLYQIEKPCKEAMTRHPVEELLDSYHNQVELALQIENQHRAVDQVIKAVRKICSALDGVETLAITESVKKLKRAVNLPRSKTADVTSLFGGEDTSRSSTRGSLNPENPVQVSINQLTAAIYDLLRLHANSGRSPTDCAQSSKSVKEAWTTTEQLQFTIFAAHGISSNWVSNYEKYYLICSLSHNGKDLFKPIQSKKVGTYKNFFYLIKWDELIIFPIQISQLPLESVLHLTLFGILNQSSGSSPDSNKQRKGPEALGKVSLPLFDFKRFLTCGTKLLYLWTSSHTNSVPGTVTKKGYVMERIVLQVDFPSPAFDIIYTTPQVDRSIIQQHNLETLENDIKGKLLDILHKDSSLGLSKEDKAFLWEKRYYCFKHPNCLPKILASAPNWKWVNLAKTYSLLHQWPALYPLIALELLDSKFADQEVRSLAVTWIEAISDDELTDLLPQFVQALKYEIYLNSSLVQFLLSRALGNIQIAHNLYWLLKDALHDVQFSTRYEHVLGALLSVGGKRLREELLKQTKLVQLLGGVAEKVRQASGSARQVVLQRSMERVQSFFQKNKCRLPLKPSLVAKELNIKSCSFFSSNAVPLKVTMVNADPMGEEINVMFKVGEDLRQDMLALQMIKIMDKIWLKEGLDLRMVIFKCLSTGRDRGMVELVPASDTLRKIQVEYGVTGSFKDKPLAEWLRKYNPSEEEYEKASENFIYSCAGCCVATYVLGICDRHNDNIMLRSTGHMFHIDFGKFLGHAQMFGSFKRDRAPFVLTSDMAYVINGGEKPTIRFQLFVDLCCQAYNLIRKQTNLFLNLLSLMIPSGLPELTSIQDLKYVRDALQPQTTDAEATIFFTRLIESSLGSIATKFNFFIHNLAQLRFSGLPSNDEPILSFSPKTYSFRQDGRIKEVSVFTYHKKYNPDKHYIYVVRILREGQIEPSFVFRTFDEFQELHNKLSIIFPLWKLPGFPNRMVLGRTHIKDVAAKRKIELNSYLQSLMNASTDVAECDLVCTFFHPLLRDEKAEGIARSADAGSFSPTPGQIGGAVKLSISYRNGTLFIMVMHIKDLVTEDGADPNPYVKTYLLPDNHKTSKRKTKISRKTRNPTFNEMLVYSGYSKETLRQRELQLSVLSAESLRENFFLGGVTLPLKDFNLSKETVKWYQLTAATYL
T3 sequence (Q9UK32 whole entry): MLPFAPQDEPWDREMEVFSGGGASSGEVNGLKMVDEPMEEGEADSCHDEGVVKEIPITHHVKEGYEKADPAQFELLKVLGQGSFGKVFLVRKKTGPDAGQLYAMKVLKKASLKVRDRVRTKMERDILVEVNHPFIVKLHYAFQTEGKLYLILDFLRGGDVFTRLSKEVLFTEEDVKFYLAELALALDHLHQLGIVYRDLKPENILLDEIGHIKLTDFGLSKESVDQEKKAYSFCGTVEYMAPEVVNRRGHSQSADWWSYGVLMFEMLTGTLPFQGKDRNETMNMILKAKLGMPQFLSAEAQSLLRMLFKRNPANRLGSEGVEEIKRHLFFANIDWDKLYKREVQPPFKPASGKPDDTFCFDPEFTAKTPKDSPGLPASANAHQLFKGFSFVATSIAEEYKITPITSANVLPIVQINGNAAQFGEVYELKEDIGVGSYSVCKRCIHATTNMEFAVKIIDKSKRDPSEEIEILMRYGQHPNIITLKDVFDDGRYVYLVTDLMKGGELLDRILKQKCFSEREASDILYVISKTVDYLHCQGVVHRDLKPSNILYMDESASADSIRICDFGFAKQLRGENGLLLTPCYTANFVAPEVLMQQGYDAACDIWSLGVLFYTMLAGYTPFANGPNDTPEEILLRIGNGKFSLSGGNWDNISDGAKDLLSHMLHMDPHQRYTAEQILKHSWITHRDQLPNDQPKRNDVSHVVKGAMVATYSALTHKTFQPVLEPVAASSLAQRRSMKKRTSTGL
T5 sequence (Q6P2M8 whole entry): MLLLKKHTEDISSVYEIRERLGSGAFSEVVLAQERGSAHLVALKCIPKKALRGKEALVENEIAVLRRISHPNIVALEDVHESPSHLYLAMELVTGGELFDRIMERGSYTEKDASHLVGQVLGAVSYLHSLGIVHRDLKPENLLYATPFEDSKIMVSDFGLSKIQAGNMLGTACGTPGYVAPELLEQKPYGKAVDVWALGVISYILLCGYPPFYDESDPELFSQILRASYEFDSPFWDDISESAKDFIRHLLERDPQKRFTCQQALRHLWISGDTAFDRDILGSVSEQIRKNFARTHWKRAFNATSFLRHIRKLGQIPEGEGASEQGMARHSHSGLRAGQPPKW

SMILES: Fc1ccc2ncnc(NCCc3ccc(Cl)cc3)c2c1 [5at, N-[2-(4-Chlorophenyl)Ethyl]-6-Fluoro-4-Quinazolinamine]
- remaining activity at 10 µM [1, 2]: 94%
- remaining activity at 10 µM (Haspin(h); [2]): 78%
- remaining activity at 10 µM (CDKL3(h); [2]): 71%
- remaining activity at 10 µM (Rsk4(h); [2]): 92%
- remaining activity at 10 µM (CDKL1(h); [2]): 111%
- remaining activity at 10 µM (PI3KC2a(h); [2]): 105%
- remaining activity at 10 µM (CaMKIß(h); [2]): 81%
- remaining activity at 10 µM (WNK4(h); [2]): 92%
- remaining activity at 10 µM (MARK4(h); [2]): 105%

SMILES: Fc1ccc(CCNc2ncnc3ccc(F)cc23)cc1 [5as, 6-Fluoro-N-[2-(4-Fluorophenyl)Ethyl]-4-Quinazolinamine]
- remaining activity at 10 µM [1, 3]: 91%
- remaining activity at 10 µM (Haspin(h); [3]): 72%
- remaining activity at 10 µM (CDKL3(h); [3]): 65%
- remaining activity at 10 µM (Rsk4(h); [3]): 81%
- remaining activity at 10 µM (CDKL1(h); [3]): 111%
- remaining activity at 10 µM (PI3KC2a(h); [3]): 100%
- remaining activity at 10 µM (CaMKIß(h); [3]): 84%
- remaining activity at 10 µM (WNK4(h); [3]): 94%
- remaining activity at 10 µM (MARK4(h); [3]): 104%

SMILES: COc1ccc2ncnc(Nc3cccc(F)c3)c2c1 [5ay, N-(3-Fluorophenyl)-6-Methoxy-4-Quinazolinamine]
- remaining activity at 10 µM [1, 4]: 93%
- remaining activity at 10 µM (Haspin(h); [4]): 36%
- remaining activity at 10 µM (CDKL3(h); [4]): 29%
- remaining activity at 10 µM (Rsk4(h); [4]): 100%
- remaining activity at 10 µM (CDKL1(h); [4]): 119%
- remaining activity at 10 µM (PI3KC2a(h); [4]): 106%
- remaining activity at 10 µM (CaMKIß(h); [4]): 92%
- remaining activity at 10 µM (WNK4(h); [4]): 100%
- remaining activity at 10 µM (MARK4(h); [4]): 100%

SMILES: Fc1ccc(CNc2ncnc3ccc(F)cc23)cc1 [5aa, 6-Fluoro-N-(4-fluorobenzyl)-4-Quinazolinamine]
- remaining activity at 10 µM [1, 5]: 96%
- remaining activity at 10 µM (Haspin(h); [5]): 71%
- remaining activity at 10 µM (CDKL3(h); [5]): 77%
- remaining activity at 10 µM (Rsk4(h); [5]): 117%
- remaining activity at 10 µM (CDKL1(h); [5]): 94%
- remaining activity at 10 µM (PI3KC2a(h); [5]): 102%
- remaining activity at 10 µM (CaMKIß(h); [5]): 85%
- remaining activity at 10 µM (WNK4(h); [5]): 105%
- remaining activity at 10 µM (MARK4(h); [5]): 107%
